Reference: publication PMC4150255 (Journal of medicinal chemistry, 2012)

Tested on: LNCaP C-81 cells
Experiment: cell proliferation assay
Type: cell-based, Human
Conditions: regular culture medium, 3 days treatment

Structure (SMILES) | inhibition of proliferation
O=C(NN=C1C=CC(=NOS(=O)(=O)c2ccccc2)C=C1)c1cc2ccccc2cc1O [Compound A9] | up to 70%
O=C(c1ccc(O)c(NC(=O)c2cccc3ccccc23)c1)c1ccc(O)c(NC(=O)c2cccc3ccccc23)c1 [Compound A36] | about 32%
